For the assay, the system named is H23 cells. In words: H23 Cellular Proliferation Assay (CellTiter-Glo). The settings on record: Homo sapiens, NCI-H23, 96 h, 4 days, read-out: H23 CTG IC50. Format: cell-based. As to the method:
H23 Cellular Proliferation Assay
Cells were treated with compounds diluted in DMSO and a 9 point 5-fold serial dilutions. Plates were placed in 37° C., 5% CO2 for to incubate for 4 days. Before they were developed by adding 100 μL of CellTiter-Glo reagent (Promega) to the assay plate, plates were shaken briefly for 2 mins and allowed to incubate at rt for 10 mins. The plates are read with a M5e plate reader according to CellTiter-Glo protocol. The GraphPad Prism software is used to get IC50 values.
(In general: Cellular ATP, detected with luciferase, serves as a proxy for viable cell number.)

Usually IC50 stands for the concentration at which inhibition is half-maximal.

Regarding `C=CCn1c(=O)c2cnc(Nc3ccc(N4CCN(C)CC4)cc3)nc2n1-c1ccc2c(c1)[C@](O)(CC)CO2` (single isomer, unassigned) [Example 5A], the IC50 was more than 1000 nM.

Take `C=CCn1c(=O)c2cnc(Nc3ccc(N4CCN(C)CC4)cc3)nc2n1-c1ccc2c(c1)[C@@](O)(CC)CO2` (single isomer, unassigned) [Example 5B]: the IC50 was 100 to 1000 nM.

For the compound `C=CCn1c(=O)c2cnc(Nc3ccc(N4CCN(C)CC4)cc3)nc2n1-c1ccc2c(n1)[C@](O)(C(F)(F)F)CO2` (single isomer, unassigned) [Example 6A], the IC50 was more than 1000 nM.

With `C=CCn1c(=O)c2cnc(Nc3ccc(N4CCN(C)CC4)cc3)nc2n1-c1ccc2c(n1)[C@@](O)(C(F)(F)F)CO2` (single isomer, unassigned) [Example 6B], the IC50 lay within 100 to 1000 nM.

In the case of `C=CCn1c(=O)c2cnc(Nc3ccc(N4CCNCC4)c(C)c3)nc2n1-c1ccc2c(n1)[C@](O)(CC)CC2` (single isomer, unassigned) [Example 13A], the IC50 is 100 to 1000 nM.

For the compound `C=CCn1c(=O)c2cnc(Nc3ccc(N4CCNCC4)c(C)c3)nc2n1-c1ccc2c(n1)[C@@](O)(CC)CC2` (single isomer, unassigned) [Example 13B], the IC50 was less than 100 nM.

In the case of `C=CCn1c(=O)c2cnc(Nc3ccc(N4CCN(C)CC4)cc3)nc2n1-c1ccc2c(n1)[C@](O)(C1CC1)CC2` (single isomer, unassigned) [Example 16A], the IC50 fell in the range of 100 to 1000 nM.

Consider `C=CCn1c(=O)c2cnc(Nc3ccc(N4CCN(C)[C@@H](C)C4)cc3)nc2n1-c1ccc2c(n1)[C@@](C)(O)CC2` (single isomer, unassigned) [Example 17A], for which the IC50 was in the range of 100 to 1000 nM.

Take `C=CCn1c(=O)c2cnc(Nc3ccc(N4CCN(C)[C@@H](C)C4)cc3)nc2n1-c1ccc2c(n1)[C@](C)(O)CC2` (single isomer, unassigned) [Example 17B]: the IC50 lay within 100 to 1000 nM.

Turning to `C=CCn1c(=O)c2cnc(Nc3ccc(N4CCN(C)[C@H](C)C4)cc3)nc2n1-c1ccc2c(n1)[C@@](C)(O)CC2` (single isomer, unassigned) [Example 18A], the IC50 was in the range of 100 to 1000 nM.

In the case of `C=CCn1c(=O)c2cnc(Nc3ccc(N4CCN(C)[C@H](C)C4)cc3)nc2n1-c1ccc2c(n1)[C@](C)(O)CC2` (single isomer, unassigned) [Example 18B], the IC50 lay in the range of 100 to 1000 nM.

For the compound `C=CCn1c(=O)c2cnc(Nc3ccc(N4CCN(C)C[C@@H]4C)cc3)nc2n1-c1ccc2c(n1)[C@@](C)(O)CC2` (single isomer, unassigned) [Example 19A], the IC50 is more than 1000 nM.

Turning to `C=CCn1c(=O)c2cnc(Nc3ccc(N4CCN(C)C[C@@H]4C)cc3)nc2n1-c1ccc2c(n1)[C@](C)(O)CC2` (single isomer, unassigned) [Example 19B], the IC50 fell in the range of 100 to 1000 nM.

In the case of `C=CCn1c(=O)c2cnc(Nc3ccc(N4CCN(C)C[C@H]4C)cc3)nc2n1-c1ccc2c(n1)[C@@](C)(O)CC2` (single isomer, unassigned) [Example 20A], the IC50 is more than 1000 nM.

As for `C=CCn1c(=O)c2cnc(Nc3ccc(N4CCN(C)C[C@H]4C)cc3)nc2n1-c1ccc2c(n1)[C@](C)(O)CC2` (single isomer, unassigned) [Example 20B], the IC50 was in the range of 100 to 1000 nM.

`C=CCn1c(=O)c2cnc(Nc3ccc(N4CCN(C)CC4)c(C)c3)nc2n1-c1ccc2c(c1)[C@@](C)(O)CC2` (single isomer, unassigned) [Example 23A]: the IC50 lay within 100 to 1000 nM.

In the case of `C=CCn1c(=O)c2cnc(Nc3ccc(N4CCN(C)CC4)c(C)c3)nc2n1-c1ccc2c(c1)[C@](C)(O)CC2` (single isomer, unassigned) [Example 23B], the IC50 was less than 100 nM.

For `C=CCn1c(=O)c2cnc(Nc3ccc(N4CCN(C)CC4)cc3)nc2n1-c1cc(F)c2c(c1)[C@@](C)(O)CC2` (single isomer, unassigned) [Example 24A], the IC50 lay within 100 to 1000 nM.

Consider `C=CCn1c(=O)c2cnc(Nc3ccc(N4CCN(C)CC4)cc3)nc2n1-c1cc(F)c2c(c1)[C@](C)(O)CC2` (single isomer, unassigned) [Example 24B], for which the IC50 fell in the range of 100 to 1000 nM.
